Series [1] in a line: Pharmacokinetic parameters in the rat (i.v. and intragastric). Format: in vivo. Conditions: for clearance / Vd / half-life: male, iv; for clearance: read-out: CLplasma (converted); for Vd: read-out: Vss; for half-life: read-out: t½ (converted). How it is done:
For this, the test substances were applied in dissolved form both for intravenous, and for intragastric application, wherein compatible solubilizers such as PEG400 and/or ethanol were used in a compatible amount.
(§1) The test substances were applied at a dose of 0.1-1 mg/kg. Administration was as a bolus injection in the male rat and as an infusion in the female dog (15 min). At various time points after the bolus injection, and before and after the 15-minute infusion, blood samples of about 100-150 μl were removed via a catheter either from the jugular vein (rat) or from the saphenous vein (dog). Lithium-heparin was added as anticoagulant to the blood samples and they were stored in a refrigerator until required for further processing. After centrifugation of the samples for 15 min at 3000 rpm, an aliquot of 100 μl was taken from the supernatant (plasma) and was precipitated by adding 400 μl of cold ACN or methanol (absolute). The precipitated samples were frozen-out at 20° C. overnight, then centrifuged again at 3000 rpm for 15 min, before 150 μl of the clear supernatant were removed to determine the concentration. The analysis was effected by means of an Agilent 1200 HPLC system with connected LCMS/MS detection.
Calculation of the PK parameters (using PK calculation software, e.g. WinNonLin®): CLplasma: total plasma clearance of the test substance (in l*kg/h); CLblood: total blood clearance of the test substance (in l*kg/h),
where (CLblood=CLplasma*Cp/Cb); Vss: apparent steady-state distribution volume (in 1/kg); t1/2: half-life within a specified interval (here: terminal t1/2, in h); AUCnorm: area under the plasma concentration time profile from time point zero extrapolated to infinity divided by the dose normalized for body weight (in kg*l/h); AUC(0-tn)norm: integrated area under the plasma concentration time profile from time point zero until the last time point at which a plasma concentration was measurable, divided by the dose normalized for body weight (in kg*l/h); Cmax: maximum concentration of the test substance in the plasma (in μg/l); Cmax,norm: maximum concentration of the test substance in the plasma divided by the dose normalized for body weight (in kg/1); Cb/Cp: ratio of the blood to plasma concentration distribution.
as §1, with “administered to fasting male rats or female dogs” for “applied”, “0.3-1 mg/kg intragastrically” for “0.1-1 mg/kg. Administration was”, “using a feeding tube.” for “injection in the male rat and as an infusion in the female dog (15 min).”, “administration,” for “the bolus injection, and before and after the 15-minute infusion,”, “−20°” for “20°”, “centrifuged” for “centrifuged again”
Calculation of the PK Parameters (Using PK Calculation Software, e.g. WinNonLin®): […]

For series [2], the target named is human serum albumin (HSA) (Homo sapiens, UniProt P02768). Put plainly: Protein binding to human serum albumin (HSA-Transil).
A short description of series [3]: Plasma protein binding by equilibrium dialysis, mouse. The series is classed as in vitro ADME. Conditions: read-out: fu (mouse). How it is done: The binding of test substances to plasma proteins is determined by equilibrium dialysis by means of the Ht-dialysis apparatus (96-well) made of Teflon and a semipermeable membrane (regenerated cellulose, MWCO 12-14K). This separates 150 μl each of a plasma side and a buffer side (50 mM phosphate buffer). The test substance is added in 2 concentrations (usually 3 and 0.3 μM) to the plasma side and binds to plasma proteins. The unbound fraction of the test substance passes through the membrane and is distributed on either side until equilibrium is established (after approx. 6-8 h at 37° C.). The substance concentration on the buffer side and the plasma side is determined by LC-MS analysis. For this, both sides are brought by dilution with buffer or plasma to the same matrix (10% plasma) and then precipitated with methanol. The free (unbound) fraction (fu) is calculated from the quotient of the buffer and plasma concentration. Stability tests and recovery tests are run concurrently as controls. In addition, the substance in buffer is dialysed against buffer, to check the nonspecific binding to apparatus and membrane and establishment of equilibrium. Because during incubation the osmotic pressure of the plasma proteins leads to dilution of the plasma (volume shift), this possible error is determined by weighing blank plasma samples and is included in the calculation of fu. Establishment of equilibrium and plasma stability should have a value not lower than 80% and the recovery should be at least 30%. A free fraction of <1% is regarded as high, between 1 and 10% as moderate and >10% as low plasma protein binding.
Background: In equilibrium dialysis only unbound substance equilibrates across the membrane.

In another series the target is human ACC2 (Homo sapiens, UniProt O00763). Put plainly: Human ACC2 enzyme assay (ADP-Glo). Conditions: ACC 2 IC50, individual measurements. In general terms: ADP-Glo turns the ADP formed in a reaction into a luminescent signal.
Another series deals with Phaedon cochleariae. Put plainly: Phaedon test (PHAECO spray treatment). Conditions: 500 g/ha, after 7 days.
In another series the test system is KM12. Put plainly: Tumour cell proliferation, CellTiter-Glo, 96-hour incubation, KM12. The series is classed as cell-based. Conditions: Homo sapiens, KM12, 96 h, read-out: KM12 IC50. The method, boiled down: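 Cells seeded at 2000-5000 cells/well, separate t=0 plate read after overnight at 37° C; compound-treated plates incubated 96 hours at 37° C, CellTiter-Glo luminescence. Growth inhibition (%) from t=96 minus t=0 luminescence, treated versus untreated control.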

This note sets out measurements from patent publication US20140011853A1, “SUBSTITUTED 3-(BIPHENYL-3-YL)-8,8-DIFLUORO-4-HYDROXY-1-AZASPIRO[4.5]DEC-3-EN-2-ONES FOR THERAPY” (BAYER INTELLECTUAL PROPERTY GMBH, priority 2011, published 2014).

Molecules are shown by their SMILES. Values joined by “and” are separate entries in the source; they are usually repeats but may differ in a detail not shown here. Equal values may be shown once. Read-outs that look alike come from different tables or passages of the source.

human ACC2, sequence (O00763 27-2458 limits assumed): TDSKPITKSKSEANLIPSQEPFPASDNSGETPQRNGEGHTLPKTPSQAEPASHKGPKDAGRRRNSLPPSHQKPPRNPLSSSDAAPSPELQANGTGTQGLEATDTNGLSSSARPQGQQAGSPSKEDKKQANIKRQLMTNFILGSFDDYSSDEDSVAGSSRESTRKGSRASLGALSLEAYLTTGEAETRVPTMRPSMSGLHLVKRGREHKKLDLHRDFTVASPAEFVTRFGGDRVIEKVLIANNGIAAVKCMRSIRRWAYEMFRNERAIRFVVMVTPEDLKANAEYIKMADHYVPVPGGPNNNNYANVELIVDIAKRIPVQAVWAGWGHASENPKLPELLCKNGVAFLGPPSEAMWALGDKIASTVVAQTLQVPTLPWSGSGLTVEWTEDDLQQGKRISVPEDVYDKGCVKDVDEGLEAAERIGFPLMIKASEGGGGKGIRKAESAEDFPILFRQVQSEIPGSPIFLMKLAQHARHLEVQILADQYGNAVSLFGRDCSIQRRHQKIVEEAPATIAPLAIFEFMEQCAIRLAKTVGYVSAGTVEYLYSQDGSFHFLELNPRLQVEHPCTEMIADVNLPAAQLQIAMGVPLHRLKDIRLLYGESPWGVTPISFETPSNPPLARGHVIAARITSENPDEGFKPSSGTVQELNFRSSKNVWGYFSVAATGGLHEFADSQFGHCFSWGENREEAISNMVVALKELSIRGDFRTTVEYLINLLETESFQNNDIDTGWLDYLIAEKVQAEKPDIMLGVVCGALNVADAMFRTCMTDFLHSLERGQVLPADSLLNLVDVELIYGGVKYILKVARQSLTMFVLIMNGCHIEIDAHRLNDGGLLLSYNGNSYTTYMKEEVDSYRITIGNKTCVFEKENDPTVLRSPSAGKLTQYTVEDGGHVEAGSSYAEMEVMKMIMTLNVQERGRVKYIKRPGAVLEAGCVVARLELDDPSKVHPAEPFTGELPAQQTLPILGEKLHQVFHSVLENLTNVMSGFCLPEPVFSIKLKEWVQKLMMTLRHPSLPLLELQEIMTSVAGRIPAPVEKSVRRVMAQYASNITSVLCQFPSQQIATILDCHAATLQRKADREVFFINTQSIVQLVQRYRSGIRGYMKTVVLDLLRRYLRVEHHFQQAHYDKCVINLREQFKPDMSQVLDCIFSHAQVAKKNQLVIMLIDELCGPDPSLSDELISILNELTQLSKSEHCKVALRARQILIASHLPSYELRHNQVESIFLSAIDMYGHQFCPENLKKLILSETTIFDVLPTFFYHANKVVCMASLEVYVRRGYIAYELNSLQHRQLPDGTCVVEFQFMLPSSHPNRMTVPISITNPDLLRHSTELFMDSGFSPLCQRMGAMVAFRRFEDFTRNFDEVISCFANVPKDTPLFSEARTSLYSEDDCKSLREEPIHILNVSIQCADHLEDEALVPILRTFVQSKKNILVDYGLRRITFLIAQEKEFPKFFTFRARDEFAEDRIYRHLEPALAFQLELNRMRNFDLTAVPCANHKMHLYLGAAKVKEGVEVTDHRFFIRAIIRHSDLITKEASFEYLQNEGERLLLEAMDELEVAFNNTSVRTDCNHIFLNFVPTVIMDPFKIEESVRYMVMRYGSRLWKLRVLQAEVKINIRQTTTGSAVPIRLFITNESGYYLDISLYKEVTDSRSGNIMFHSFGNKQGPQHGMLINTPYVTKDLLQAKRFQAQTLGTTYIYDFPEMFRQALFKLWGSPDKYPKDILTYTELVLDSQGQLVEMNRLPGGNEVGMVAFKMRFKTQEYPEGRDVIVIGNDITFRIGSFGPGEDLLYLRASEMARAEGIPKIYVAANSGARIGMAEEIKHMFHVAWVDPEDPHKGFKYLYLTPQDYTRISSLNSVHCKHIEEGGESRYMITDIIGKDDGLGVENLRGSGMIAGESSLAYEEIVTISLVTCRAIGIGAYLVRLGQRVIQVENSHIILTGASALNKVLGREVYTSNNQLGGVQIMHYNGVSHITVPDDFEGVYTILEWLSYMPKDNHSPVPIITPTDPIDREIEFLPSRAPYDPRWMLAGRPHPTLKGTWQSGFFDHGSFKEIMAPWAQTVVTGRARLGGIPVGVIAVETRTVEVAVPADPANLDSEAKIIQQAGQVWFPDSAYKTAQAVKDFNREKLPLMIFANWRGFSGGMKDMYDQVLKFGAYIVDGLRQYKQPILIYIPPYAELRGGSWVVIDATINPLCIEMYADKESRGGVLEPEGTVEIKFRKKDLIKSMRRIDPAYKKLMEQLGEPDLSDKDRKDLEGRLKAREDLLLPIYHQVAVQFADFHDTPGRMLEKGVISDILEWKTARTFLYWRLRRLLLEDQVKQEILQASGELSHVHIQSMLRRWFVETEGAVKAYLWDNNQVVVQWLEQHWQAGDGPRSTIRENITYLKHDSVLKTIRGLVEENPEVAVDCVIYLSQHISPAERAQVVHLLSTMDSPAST
human serum albumin (HSA), sequence (P02768 25-609): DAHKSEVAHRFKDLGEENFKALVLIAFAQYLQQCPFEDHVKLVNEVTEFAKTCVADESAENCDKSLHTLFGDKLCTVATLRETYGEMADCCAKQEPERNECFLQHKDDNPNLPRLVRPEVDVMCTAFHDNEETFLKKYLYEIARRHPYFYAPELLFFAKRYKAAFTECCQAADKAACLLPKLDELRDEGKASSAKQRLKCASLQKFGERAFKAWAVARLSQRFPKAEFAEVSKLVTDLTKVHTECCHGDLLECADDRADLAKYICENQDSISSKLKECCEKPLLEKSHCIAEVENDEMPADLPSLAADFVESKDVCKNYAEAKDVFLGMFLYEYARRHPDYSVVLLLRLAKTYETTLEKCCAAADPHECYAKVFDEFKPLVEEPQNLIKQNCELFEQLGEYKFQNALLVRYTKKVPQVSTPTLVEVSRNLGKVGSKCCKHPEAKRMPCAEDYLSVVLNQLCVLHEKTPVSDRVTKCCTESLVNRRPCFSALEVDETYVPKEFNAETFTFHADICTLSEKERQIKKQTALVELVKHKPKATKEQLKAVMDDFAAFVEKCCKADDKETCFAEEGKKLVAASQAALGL

In the case of `Cc1ccc(-c2ccc(Cl)c(F)c2)cc1C1=C(O)C2(CCC(F)(F)CC2)NC1=O` [Example 1-1, 3-(4′-Chloro-3′-fluoro-4-methylbiphenyl-3-yl)-8,8-difluoro-4-hydroxy-1-azaspiro[4.5]dec-3-en-2-one], in series [1], the CLblood came out at 0.367 mL/min/kg and the F came to 95%. Also, in series [1] (plasma), the clearance was 0.167 mL/min/kg, the Vd turned out to be 0.55 L/kg and the half-life was 40 h. The same compound registered a Kd in series [2] of 3040 nM. The fraction unbound in series [3] stood at 0.0184. Moreover, the IC50 against human ACC2 is 3370 nM and 2110 nM and 2510 nM and 3740 nM and 957 nM and 1910 nM and 2780 nM and 3240 nM. In addition, in the series with Phaedon cochleariae, the “effect (kill of beetle larvae)” value is given as 100%. Further, the IC50 in the series with KM12 worked out at 28 nM.
In series [1], `Cc1ccc(-c2ccc(Cl)cc2)cc1C1=C(O)C2(CCC(F)(F)CC2)NC1=O` [Example 1-2, 3-(4′-Chloro-4-methylbiphenyl-3-yl)-8,8-difluoro-4-hydroxy-1-azaspiro[4.5]dec-3-en-2-one] had a CLblood of 0.2 mL/min/kg and an F of 123%. Besides, in series [1] (in vivo), the clearance was 0.1 mL/min/kg, the Vd was 0.36 L/kg and the half-life was 52 h. The compound further returned a Kd in series [2] of 3860 nM. In series [3], the fraction unbound came out at 0.0349. In addition, on human ACC2, the IC50 is 2350 nM and 2070 nM and 2450 nM and 2790 nM and 650 nM and 1280 nM and 1230 nM and 1740 nM. Further, in the series with Phaedon cochleariae, the “effect (kill of beetle larvae)” value came to 100%. Further, the concentration for half-maximal inhibition (IC50) in the series on KM12 was 58 nM.

In general, Kd refers to the equilibrium constant for the complex coming apart. As usually defined, the IC50 is the midpoint of a concentration-inhibition curve.
